Test results published in patent US5952296A, “Method of using relaxin as therapeutic or preventing agent” (priority 1993, dated 1999).
“Also recorded” adds a separate entry of the source. No end group written: not given here.

Columns and labels:
BASM cells = assay: Bovine aorta smooth muscle (BASM) cells cultured in vitro: actin cytoskeleton and intracellular cGMP; type: cell-based; conditions: for increase in intracellular cGMP levels: BASM cells
From the text: 1-b Smooth muscle cells of the vascular wall obtained from bovine aorta (BASM) and cultured in vitro are a suitable in vitro model for understanding the mode of action of RLX on blood vessels.
[…] RLX caused a striking concentration-related increase in intracellular cGMP levels (400% and 900% over the values of the untreated cultures).

[1] = test system: isolated serosal rat and guinea pig MCs and rat mesenteric MCs; assay: Mast cell histamine release, degranulation and intracellular Ca2+; type: cell-based; conditions: for calcium-ionophore-induced and anaphylactic histamine release: mast cells stimulated by ionophore or sensitized by allergen
From the text: 1-c Mast cells (MCs) are known to produce and release vasoactive substances. It has therefore been investigated whether RLX also exerts its vasodilatory action by influencing MC function. […] This effect is mediated by a stimulation of NO production. In fact, the RLX-induced depression of histamine release evoked by calcium ionophore was prevented by MeArg and potentiated by SOD. Moreover, RLX blunted the rise in the intracellular Ca^2+ levels evoked by calcium ionophore in a concentration-related fashion (41% decrease with 10 ng/mL RLX and 97% decrease with 100 ng/mL RLX). From these findings, it emerges that the vasodilatory action of RLX is not due to histamine release by MCs but, rather, to production of the vasodilatory agent NO, in keeping with its effect in the coronary system. The above results are summarized in the diagrams A and B in FIG. 4.
The degree of inhibition was the function of the dose of relaxin being used.

[2] = test system: guinea pig hearts, isolated and perfused in vitro; assay: Coronary flow in isolated guinea pig hearts perfused in a Langendorff apparatus
Protocol: (§1) 1-a The coronary system was deemed a suitable model for studying the influence of RLX on dilation of blood vessels. Rat and guinea pig hearts, isolated and perfused in vitro in a Langendorff apparatus, were used to evaluate whether RLX causes changes in the coronary flow. After 30 minutes stabilization, in some experiments RLX (30 ng/ml) was added to the perfusion fluid and perfusion lasted for 20 minutes. In other experiments,RLX (30 ng/ml) was injected as a bolus into the aortic cannula. The perfusates were collected and the coronary flow determined. […] The percentage of basal flow variation is depicted versus time. In these diagrams (as well as in the next ones) values are expressed as mean ± SE (standard error). Statistic analyses were done calculating the Student's test (P), whose value is shown in the diagrams.
To clarify the mechanisms of action of RLX on dilation of coronary vessels, nitric oxide (NO) production and histamine release were assayed in the perfused guinea pig hearts. NO, which is known to be a powerful vasodilatory agent, was measured by determination of nitrites (stable end-products of NO metabolism) in the perfusates. […]

[3] = test system: mesenteric artery of spontaneously hypertensive rats; conditions: two days infusion; cited from earlier work
[4] = test system: perfused guinea pig hearts; assay: Nitric oxide (nitrite) production and histamine release in perfused guinea pig hearts
Protocol: To clarify the mechanisms of action of RLX on dilation of coronary vessels, nitric oxide (NO) production and histamine release were assayed in the perfused guinea pig hearts. NO, which is known to be a powerful vasodilatory agent, was measured by determination of nitrites (stable end-products of NO metabolism) in the perfusates. In some experiments, N^W -monomethyl L-arginine (MeArg), a NO-synthase inhibitor, was added to the perfusion fluid before giving RLX as a bolus; in other experiments,guinea pigs were pretreated with E.coli lipopolysaccharide (LPS), an inducer of NO-synthase activity before heart isolation and perfusion. […] This was further confirmed by the experiments with MeArg and LPS, drugs that blunted and enhanced the RLX-induced increase in the coronary flow, respectively (FIG. 2).

[5] = test system: rat hearts, isolated and perfused in vitro; assay: Coronary flow in isolated rat hearts perfused in a Langendorff apparatus; conditions: RLX 30 ng/ml in perfusion fluid for 20 minutes or as bolus into the aortic cannula; rat heart (FIG. 1A)
Protocol: as §1

atrial myocardiocytes = assay: ANP secretion from atrial myocardiocytes of rats after intraperitoneal RLX; type: in vivo, rat
Protocol: 3-a ANP secretion was studied in rats following intraperitoneal administration of 10 μg RLX. It is known that atrial myocardiocytes have an endocrine function, being able to synthesize and release a peptide, called atrial natriuretic peptide (ANP) that, besides its firstly recognized effect in stimulating natriuresis, has other properties such as a negative action on blood pressure due to a decrease in the vascular tone and a shift of the plasma fluid in the interstitial compartment. A possible relationship has therefore been searched for between RLX and ANP by evaluating the amount of immunoreactive ANP and the ultrastructural features of atrial myocardiocytes of rats upon RLX treatment. […] No appreciable changes were found in the extension of the ergastoplasm and Golgi apparatus. […] Determinations of ANP content in rat atria homogenates by RIA before and after in vivo administration of RLX are in agreement with the EM findings.

deep artery of the penis = assay: Blood flow in the deep artery of the penis by echo-doppler after injection into the cavernous bodies; type: in vivo, human
Protocol: 1-d The blood flow in the penis is influenced by local NO production. Based on the ability of RLX to stimulate NO synthesis, the effect of the peptide on the blood flow in the deep artery of the penis was investigated. RLX (sterilized by microfiltration) was injected into the cavernous bodies of 4 human normal volunteers at a dose of 10 ng, and the blood flow measured by an echo-doppler Acuson 128, 1-6 minutes after the injection. […] In FIG. 5 the echo-doppler images are reported, showing the flow under normal conditions (diagram A), 1 min. after RLX injection (diagram B) and 5 min. after RLX injection (diagram C).

[6] = Blood osmolality and sodium concentration in rats after RLX; type: in vivo, rat; conditions: rats after RLX (from 142±4 before)
heart atria = conditions: Osheroff et al.; cited from earlier work
male rats = assay: Plasma hemostasis factors, circulating platelets and megacaryocytes in male rats injected intraperitoneally with RLX; type: in vivo, rat
Protocol: A second series of experiments was performed in male rats injected intraperitoneally with RLX and sacrificed 20 minutes later. Before sacrifice, blood and plasma samples were collected for studying plasma hemostasis factors and number of circulating platelets; upon sacrifice, spleen specimens were taken for studying the morphology of megacaryocytes.

[7] = Cholesterol and triglycerides in peripheral blood serum; type: in vivo; conditions: peripheral blood serum after RLX administration
[8] = test system: isolated platelets from human volunteers and rabbits; assay: Aggregation of isolated platelets incubated with RLX and stimulated with proaggregants; type: cell-based, human and rabbit
Protocol: A first series of experiments was carried out on isolated platelets from human volunteers and rabbits, incubated with RLX and then stimulated with proaggregants.
This effect was concentration-relatedand attained a maximum of 80% inhibition with 100 ng/mL RLX.

With `CNC(=N)NCCC[C@H](N)C(=O)O` [MeArg, N^W -monomethyl L-arginine, reference compound] the “effect on the RLX-induced increase in cGMP” value (BASM cells; pretreatment of BASM cells) was “depression”, the “effect on the RLX-induced depression of histamine release evoked by calcium ionophore” value ([1]; mast cells) was “prevented” and the “effect on the RLX-induced increase in the coronary flow” value ([2]; MeArg added to perfusion fluid before RLX bolus, LPS pretreatment of guinea pigs before heart isolation) was “blunted”.

In the case of “rat RLX: rat relaxin infused for two days in a cited 1989 study (Relaxin B chain RVSEEWMDQVIQVCGRGYARAWIEVCGASVGRLAL; Relaxin A chain QSGALLSEQCCHIGCTRRSIAKLC; ends and bridges not checked; cysteine pairing not given here; UniProt P01347 23-57; P01347 163-186, looked up)”, the “vasoconstrictive effects of norepinephrine and vasopressin” value [3] is listed as “blunted”.

In the case of relaxin [RLX], the “amount of histamine in the perfusates” value [4] is reported as “significantly reduced”, the “nitrite amounts in the perfusates (NO production)” value ([4]; versus basal value) is reported as “two-fold increase over the basal value” and the “increase in intracellular cGMP levels” value (BASM cells; 10 ng/mL RLX for 1 hour) is reported as 400 % over the values of the untreated cultures. For the same compound, the “increase in intracellular cGMP levels” value (BASM cells; 100 ng/mL RLX for 1 hour) was 900 % over the values of the untreated cultures, the “actin cytoskeleton (immunocytochemistry with anti-actin antibodies)” value (BASM cells; BASM cells incubated for 4 hours with 100 ng/mL RLX) was “induces changes in the actin cytoskeleton” and the coronary flow [5] was “increases significantly”. The “amount of immunoreactive ANP and number of ANP-storing granules in atrial myocardiocytes” value (atrial myocardiocytes; rats, 10 μg RLX intraperitoneal, twenty minutes after administration) was “strongly decreased”, the “secretion of ANP from the atriocytes” value (atrial myocardiocytes; summary statement) was “inhibit or, depending on the dose, totally suppress” and the “blood flow in the deep artery of the penis” value (deep artery of the penis; 10 ng into the cavernous bodies, 4 human normal volunteers, 1-6 minutes after injection, versus basal flow) was “striking increase”. The erection (deep artery of the penis; two subjects, 5-10 min. after RLX injection) was “erection was also observed”, the sodium concentration [6] was 136±2 mEq/1 and the “binding to heart atria” value (heart atria) was “binding of RLX to heart atria”. The “rhythm and contractions of the in vitro isolated atria” value (heart atria) was “increase of the rhythm and contractions”, the “F 1 + 2” value (male rats; rat plasma, RLX-Treated) was 0.028 ± 0.01 nM/mL and the PT (male rats; rat plasma, RLX-Treated) was 15.1 ± 0.5 s. For the same compound, the aPTT (male rats; rat plasma, RLX-Treated) was 19 ± 2.5 s, the “tPA Ag” value (male rats; rat plasma, RLX-Treated) was 0.52 ± 0.1 ng/mL and the Fibrinogen (male rats; rat plasma, RLX-Treated, 20 minutes after intraperitoneal injection) was 185 ± 26 mg/dL. The tPA activity (male rats; rat plasma, RLX-Treated, P < 0.001) was 0.37 ± 0.03 U/mL, the PAI-1 activity (male rats; rat plasma, RLX-Treated, P < 0.05) was 11.7 ± 0.7 U/mL and the “coagulation factors such as fibrinogen and prothrombin fragments F1+2” value (male rats; rats) was “slight decrease”. For the same compound, the “plasma levels of tPA and PAI-1” value (male rats; rats) was “significant, concentration-dependant increase”, the “number of circulating platelets” value (male rats; rats, in vivo) was “reduction in the number of circulating platelets” and the “reduction of cholesterol concentration” value [7] was “up to 38%”. For the same compound, the “reduction of triglycerides concentration” value [7] was ≤ 55%, the “maximum inhibition of platelet aggregation induced by proaggregants” value ([8]; 100 ng/mL RLX) was 80% and the “thromboxane production in platelets” value ([8]; FIG. 7) was “inhibition of thromboxane production”. The “endogenous NO synthesis in platelets” value ([8]; FIG. 8) was “stimulation of endogenous NO synthesis”, the “intracellular cGMP in platelets” value ([8]; FIG. 9) was “rise in intracellular cGMP” and the “cytosolic Ca2+ in platelets” value ([8]; FIG. 10) was “decrease of cytosolic Ca^2+”. The “platelet ultrastructure during aggregation” value ([8]; ultrastructural examination) was “hinders the conformational modifications and granule exocytosis”, the “decrease of the rise in intracellular Ca2+ levels evoked by calcium ionophore” value ([1]; 10 ng/mL RLX, mast cells) was 41% and the “decrease of the rise in intracellular Ca2+ levels evoked by calcium ionophore” value ([1]; 100 ng/mL RLX, mast cells) was 97%. The MC degranulation ([1]; mast cells) was “inhibits”, the “calcium-ionophore-induced and anaphylactic histamine release” value [1] was “inhibits” and the “calcium-ionophore-induced and anaphylactic histamine release” value ([1]; listed as relaxin) was “inhibit or, depending on the dose, totally suppress; also recorded: greatly inhibiting”. The “basal liberation of histamine by mastocytes” value ([1]; unstimulated mastocytes) was “no effect whatsoever” and the coronary flow ([2]; RLX 30 ng/ml in perfusion fluid for 20 minutes or as bolus into the aortic cannula, guinea pig heart (FIG. 1B)) was “increases significantly”.
